From patent US7563788B2, “Substituted Imidazo[1,2-a]pyridines as Antibacterial Agents” (Pfizer Inc., priority 2004, dated 2009)
In brackets after ≈: the same amount, converted by molar mass.

What was measured:
[1] = test system: Neisseria gonorrhoeae, GC525 (NG-2888); experiment: In-vitro antibacterial activity, microbroth dilution MIC susceptibility testing; assay type: cell-based; details: gonococcal broth, 20-24 hours at 35° C., lowest concentration preventing visible growth
Protocol: The in-vitro antibacterial activity of selected compounds was determined against a stain of Neisseria gonorrhoeae, GC525 (NG-2888), which is described by Rouquette-Loughlin et al, in Journal of Bacteriology, February 2003, p. 1101-1106, at p. 1103. In general, minimum inhibitory concentration (MIC) susceptibility testing followed procedures recommended by the National Committee for Clinical Laboratory Standards (NCCLS^1-2) or followed the descriptions described below:
Neisseria gonorrhoeae strains were grown on Chocolate Agar II plates (BBL—Becton Dickinson Microbiology Systems, Cockeysville, Md.) and incubated at 35° C. in a humidified 5% CO2 incubator (Forma Scientific, Marietta Ohio). For microbroth dilution MIC testing, N. gonorrhoeae were tested in gonococcal broth (GCB):
Bacterial culture identifications were confirmed by standard microbiological methods.^4 N. gonorrhoeae strains were streaked onto appropriate agar plates for visualization of purity and expected colony morphology. Gram stains were also utilized.
Bacterial stock cultures are stored as frozen suspensions at −70° C. N. gonorrhoeae cultures are suspended in inactivated Horse Serum (Colorado Serum Company, Denver, Colo.) containing 7.5% glucose prior to snap freezing in a dry ice/ethanol bath.
Frozen stock cultures were used as the initial source of organisms for performing microbroth dilution MIC testing. Stock cultures were passed on their respective growth medium at least one growth cycle (18-24 hours) prior to their use. Bacterial culture suspensions were prepared directly from Chocolate Agar II plates into 10 mL cation-adjusted Mueller-Hinton Broth (CAMHB, BBL, # BB215069). Before use, cultures were adjusted to an optical density value of […] on a Perkin-Elmer Lambda EZ150 Spectrophotometer (Wellesley, Mass.) set at a wavelength of 600 nm. Random cultures were plated for validation of actual colony counts. The adjusted cultures were diluted 400-fold (0.25 mL inoculum+100 mL GCB) into gonococcal broth producing a starting inoculum of approximately 5×10^5 cfu/mL. These cultures were inoculated into test plates (100 uL/well) using a Biomek® FX workstation (Beckman Coulter Inc., Fullerton, Calif.). The inoculated plates were placed in stacks of no more than 4 and covered with an empty plate. Plates were incubated for 20-24 hours at 35° C. in a humidified CO2 incubator.
Drug stock solutions (2 mg/mL in DMSO) were prepared on the day of testing. Drugs were weight corrected for assay content where necessary.
Microbroth dilution stock plates were prepared in two dilution series, 64-0.06 ug drug/mL and 1-0.001 ug drug/mL. For the high concentration series, 200 uL of stock solution (2 mg/mL) was added to duplicate rows of a 96-well plate. This was used as the first well in the dilution series. Serial two-fold decremental dilutions were made using a BioMek FX robot (Beckman Coulter Inc., Fullerton, Calif.) with 10 of the remaining 11 wells, each of which contained 100 uL of the appropriate solvent/diluent. Row 12 contained solvent/diluent only and served as the control. For tube one of the low concentration series, 200 uL of a 31.25 ug/mL stock was added to duplicate rows of a 96-well plate. Serial two-fold dilutions were made as described above.
Daughter plates were spotted (3.2 uL/well) from the stock plates listed above using the BioMek FX robot and were inoculated with organism (100 uL/well) as described previously.
After incubation, the degree of growth in each well was read visually with the aid of a Test Reading Mirror (Dynatech Lab 220-16, Dynex Technologies, Chantilly, Va.). 96-well test plates are read in a darkened room with a single light shining from above. The MIC is the lowest concentration of drug that prevents macroscopically visible growth under the conditions of the test. Each drug dilution series was tested in duplicate; identical results are not always obtained. If MIC values in duplicate tests differ by 1 well (two-fold), the […] value is reported. […]

Structure (SMILES)	MIC [1] [µg/mL]	melting point
CCNC(=O)Nc1cn2ccc(-c3cnc(OC)nc3)cc2n1 [Example 4, 1-Ethyl-3-[7-(2-methoxy-pyrimidin-5-yl)-imidazo[1,2-a]pyridin-2-yl]-urea]	12.7 (≈ 40.7 µM)	> 300 °C
CCNC(=O)Nc1cn2ccc(-c3ccc(OC)nc3)cc2n1 [Example 3B, 1-Ethyl-3-[7-(6-methoxy-pyridin-3-yl)-imidazo[1,2-a]pyridin-2-yl]-urea]	16 (≈ 51.4 µM)	222 to 225 °C (dec.)
CCNC(=O)Nc1cn2ccc(-c3ccn[nH]3)cc2n1 [Example 38, 1-Ethyl-3-[7-(2H-pyrazol-3-yl)-imidazo[1,2-a]pyridin-2-yl]-urea]	32 (≈ 118 µM)	292 to 295 °C (dec.)
CCOC(=O)Nc1cn2ccc(-c3cnc(N(C)C)nc3)cc2n1 [Example 2A, [7-(2-Dimethylamino-pyrimidin-5-yl)-imidazo[1,2-a]pyridin-2-yl]-carbamic Acid Ethyl Ester]	> 64	270 to 280 °C (dec.)
CCNC(=O)Nc1cn2ccc(-c3cnc(N(C)C)nc3)cc2n1 [Example 2B, 1-[7-(2-Dimethylamino-pyrimidin-5-yl)-imidazo[1,2-a]pyridin-2-yl]-3-ethyl-urea]	16 (≈ 49.2 µM)	259 to 263 °C (dec.)
CCOC(=O)Nc1cn2ccc(-c3ccc(OC)nc3)cc2n1 [Example 3A, [7-(6-Methoxy-pyridin-3-yl)-imidazo[1,2-a]pyridin-2-yl]-carbamic Acid Ethyl Ester]	> 64	273 to 279 °C (dec.)
CCNC(=O)Nc1cn2ccc(C(=O)N3CCOCC3)cc2n1 [Example 43, 1-Ethyl-3-[7-(morpholine-4-carbonyl)-imidazo[1,2-a]pyridin-2-yl]-urea]	> 64	–
CCNC(=O)Nc1cn2ccc(-c3ccnc(N)c3)cc2n1 [Example 42, 1-[7-(2-Amino-pyridin-4-yl)-imidazo[1,2-a]pyridin-2-yl]-3-ethyl-urea]	64 (≈ 216 µM)	–
CCNC(=O)Nc1cn2ccc(C(=O)O)cc2n1 [Example 24, 2-(3-Ethyl-ureido)-imidazo[1,2-a]pyridine-7-carboxylic Acid]	> 64	–
CCNC(=O)Nc1cn2ccc(C(N)=O)cc2n1 [Example 19, 2-(3-Ethyl-ureido)-imidazo[1,2-a]pyridine-7-carboxylic Acid Amide]	> 64	–
CCNC(=O)Nc1cn2c(CO)cc(-c3cccnc3)cc2n1 [Example 7A, 1-Ethyl-3-(5-hydroxymethyl-7-pyridin-3-yl-imidazo[1,2-a]pyridin-2-yl)-urea]	5.66 (≈ 18.2 µM)	–
CCNC(=O)Nc1cn2ccc(-c3noc(=O)[nH]3)cc2n1 [Example 41, 1-Ethyl-3-[7-(5-oxo-4,5-dihydro-[1,2,4]oxadiazol-3-yl)-imidazo[1,2-a]pyridin-2-yl]-urea]	> 64	–
CCNC(=O)Nc1cn2ccc(-c3cnn(Cc4ccccc4)c3)cc2n1 [Example 10, 1-[7-(1-Benzyl-1H-pyrazol-4-yl)-imidazo[1,2-a]pyridin-2-yl]-3-ethyl-urea]	8 (≈ 22.2 µM)	–
CCNC(=O)Nc1cn2ccc(-c3cncnc3)cc2n1 [Example 8, 1-Ethyl-3-(7-pyrimidin-5-yl-imidazo[1,2-a]pyridin-2-yl)-urea]	5.66 (≈ 20 µM)	–
CCNC(=O)Nc1cn2ccc(-c3ccc(N4CCN(C)CC4)nc3)cc2n1 [Example 11, 1-Ethyl-3-{7-[6-(4-methyl-piperazin-1-yl)-pyridin-3-yl]-imidazo[1,2-a]pyridin-2-yl}-urea]	64 (≈ 169 µM)	–
CCNC(=O)Nc1cn2ccc(-c3nc(C)n[nH]3)cc2n1 [Example 20, 1-Ethyl-3-[7-(5-methyl-2H-[1,2,4]triazol-3-yl)-imidazo[1,2-a]pyridin-2-yl]-urea]	> 64	–
